What all share (assay type): biochemical
For series [1], the target named is T1, HbO2 (Homo sapiens, UniProt P68871+P69905).
T1 construct: The Hb released by hemolysis was filtered and collected, with the red blood cell membrane components (stroma) separated and removed; from tissue; host or cells: human red blood cells (expired donated blood); heat-treated, nanofiltered, purified and concentrated HbCO, photoconverted to HbO2
The series is described as follows: Oxidant-promoted metHb conversion in non-encapsulated HbO2 solution with NADH (absorbance at 630 nm). The settings on record: 10 and 40 minutes, vs no NADH. As for the experimental part: To examine the suppression of Hb oxidation by encapsulation of NADH further in detail, similar experiments were carried out for Hb solution which was not encapsulated.
(1) First, metHb conversion supplemented with NOC7 was studied. To a cuvette with an optical path length of 1 cm, 3 mL of phosphate buffered saline, 30 μL of HbO2 solution (1.5 mM), 30 μL of NADH solution (1.5 mM) and 30 μL of NOC (1.5 mM in PBS) were mixed and the change of absorbance at 630 nm, the absorption wavelength of metHb, at 25° C. was immediately monitored for 10 minutes and for 40 minutes (FIGS. 6A and 6B). In the graphs of FIGS. 6A and 6B, the absorbance at 630 nm was put on the vertical axis and incubation time (second) was put on the horizontal axis. The three lines in FIG. 6A represent a change over time of metHb when the solution comprising HbO2 and NADH was supplemented with NOC7 (HbO2+NADH+NOC7), a change over time of metHb when the solution comprising HbO2 but not NADH was supplemented with NOC7 (HbO2+NOC7) and a change over time of metHb when the solution comprising HbO2 was neither supplemented with NADH nor NOC7 (HbO2+water). […] To a cuvette with an optical path length of 1 cm, 3 mL of PBS, 30 μL of HbO2 solution (1.5 mM), 30 μL of NADH solution (1.5 mM) and 30 μL of H2O2 (1.5 mM) were mixed and the change of absorbance at 630 nm at 25° C. was immediately monitored for 10 minutes and for 40 minutes (FIGS. 7A and 7B). In the graphs of FIGS. 7A and 7B, the absorbance at 630 nm was put on the vertical axis and incubation time (second) was put on the horizontal axis. […] To a cuvette with an optical path length of 1 cm, 3 mL of PBS, 30 μL of HbO2 solution (1.5 mM), 30 μL of NADH solution (1.5 mM) and 30 μL of NaNO2 (1.5 mM in PBS) were mixed and the change of absorbance at 630 nm at 25° C. was immediately monitored for 10 minutes and for 40 minutes (FIGS. 8A and […]). In the graphs of FIGS. 8A and […], the absorbance at 630 nm was put on the vertical axis and incubation time (second) was put on the horizontal axis. […]

Series [2] deals with T1, HbO2. Briefly: Screening of suppressing effect of compounds against autoxidation of HbO2. Particulars: HbO2 10 g/dL, antioxidant 1 g/dL, 37° C., 24 hours. As for the experimental part: NADH was purchased from Oriental Yeast Co. Ltd., and all the rest were purchased from Sigma-Aldrich (St. Louis, Mo., USA). HbCO solution was transferred to an eggplant flask and irradiated with visible light (halogen lamp; LPL Videeoligtvl-302, LPLCO. Ltd., Tokyo, Japan) under oxygen gas flow to convert to HbO2. […] The conversion ratios to metHb were determined from the visible absorption spectrum. The measurement of spectrum between 300 nm to 500 nm was conducted using a spectrophotometer (V-660, Japan Spectroscopic Company (JASCO)) mounted with a device to control the light scattering to the minimum (an integrating sphere). The atmosphere inside of a Thunberg cuvette was replaced with nitrogen gas and the conversion ratios to metHb were determined from the ratios of absorbance at 405 nm (λmax of metHb) and 430 nm (λmax of deoxyHb).

The nature of series [3]: SOD (pseudo SOD) activity, pyrogallol method. The settings on record: ratio. The protocol: (§1) The activity of NADH-cytochrome b5 reductase in the above-mentioned purified and concentrated HbCO solution was determined as NADH-ferricyanide reductase activity according to Beutler, E. above. Diluted Hb samples comprising the enzyme to be measured is mixed with a buffer comprising NADH. The mixed solutions were left standing for 10 minutes at 30° C., and then potassium ferricyanide (K3Fe (CN)6), the enzyme substrate, was added to start the enzyme reaction. The decrease of difference of absorbance at 340 nm, a characteristic absorption of NADH, per minute was measured to determine activity unit E (IU/gHb). […] It was reasoned that the heat-labile NADH-cytochrome b5 reductase was eliminated as denatured and insoluble, or denatured and inactivated, due to the introduction of heat treatment during the purifying step. In addition, activities of NADPH metHb reductase and NADPH diaphorase, which correspond to NADPH-flavin reductase are also determined by the above-mentioned methods according to Beutler, E. Diluted blood samples comprising the enzyme to be measured is mixed with a buffer comprising NADPH. The mixed solutions were left standing for 10 minutes at 37° C., and then methylene bleu (MeBl), the enzyme substrate, was added to start the enzyme reaction. The decrease of difference of absorbance at 340 nm, a characteristic absorption of NADPH, per minute was measured to determine activity unit E (IU/gHb). […] Catalase activity of the purified HbCO solution was determined from the change of the absorbance at 230 nm, the absorption wavelength of H2O2, according to Beutler, E. (RED CELL METABOLISM: A MANUAL OF BIOCHEMICAL METHOD, Grune &Stratton, Inc. pp. 105-106 (1987)). […] Pyrogallol was used for measurement of SOD activity (Marklund, S. and Marklund, G., Eur. J. Biochem. 47, 469-474 (1974); Roth, E. F. Jr. and Gilbert, H. S., Anal. Biochem. 137, 50-53(1984)). Pyrogallol is oxidized with oxygen to generate superoxide, and further reacted to generate a yellow dye with absorbance at 420 nm. SOD inhibits this reaction. SOD enzyme activity was determined based on this inhibitory activity. Analyzed specimens were solutions of purified HbO2, HbCO, metHb and solutions thereof further comprising NADH or L-tyrosine In addition, enzyme activity of crude SFHb solution was also determined as a control. […] When NADH and HbO2 were coexisted, however, high CAT and SOD pseudo activities (Table 1). […] The pseudo activity was detected when NADH alone was present, however, the activity was about a tenth ( 1/10) compared with when HbO2 was coexisted. […] There were results showing that this pseudo activity increased as more NADH was added.

Series [4] in a line: Catalase (pseudo CAT) activity from change of absorbance at 230 nm of H2O2. As for the experimental part: as §1
The target in another series is T2, NADPH-flavin reductase (Homo sapiens, UniProt P30043).
T2 construct: from tissue; host or cells: human red blood cells (expired donated blood), crude stroma-free haemolysate (SFHb)
T2 sequence (P30043 1-206): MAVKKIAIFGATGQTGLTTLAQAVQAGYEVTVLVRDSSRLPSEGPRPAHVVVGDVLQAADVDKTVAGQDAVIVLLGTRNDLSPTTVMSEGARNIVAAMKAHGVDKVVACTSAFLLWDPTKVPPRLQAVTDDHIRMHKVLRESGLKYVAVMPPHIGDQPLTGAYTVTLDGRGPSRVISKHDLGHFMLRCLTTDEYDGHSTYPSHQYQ
The series is described as follows: NADPH metHb reductase / NADPH diaphorase (NADPH-flavin reductase) activity with methylene blue. The settings on record: 37° C., methylene blue substrate, decrease of absorbance at 340 nm. The protocol: Determination of NADPH-flavin reductase activity may be carried out according to Beutler, E. (RED CELL METABOLISM: A MANUAL OF BIOCHEMICAL METHOD, Grune &Stratton, Inc., pp. 79-80 (1987)). The principle of determination of this method is to measure […]. The reaction of reducing methylene bleu (MeBl) to leucomethylene blue (LeukMeBl) as follows:
NADPH+H^++MeBl→NADP^++LeukMeBl
the reaction is known to be slow. The enzyme activity is measured by tracing the degree of acceleration by adding sample comprising oxygen. The measurement is carried out based on the above-mentioned principle by measuring the change (decrease) in absorbance at 340 nm which is the characteristic absorption of the consumed NADPH.
The activity of NADH-cytochrome b5 reductase in the above-mentioned purified and concentrated HbCO solution was determined as NADH-ferricyanide reductase activity according to Beutler, E. above. Diluted Hb samples comprising the enzyme to be measured is mixed with a buffer comprising NADH. […] The decrease of difference of absorbance at 340 nm, a characteristic absorption of NADH, per minute was measured to determine activity unit E (IU/gHb). […] The decrease of difference of absorbance at 340 nm, a characteristic absorption of NADPH, per minute was measured to determine activity unit E (IU/gHb). […]

In series [5] the target is T3, NADH-cytochrome b5 reductase (Homo sapiens, UniProt P00387).
T3 construct: from tissue; host or cells: human red blood cells (expired donated blood), crude stroma-free haemolysate (SFHb)
T3 sequence (P00387 1-278 isoform P00387-2): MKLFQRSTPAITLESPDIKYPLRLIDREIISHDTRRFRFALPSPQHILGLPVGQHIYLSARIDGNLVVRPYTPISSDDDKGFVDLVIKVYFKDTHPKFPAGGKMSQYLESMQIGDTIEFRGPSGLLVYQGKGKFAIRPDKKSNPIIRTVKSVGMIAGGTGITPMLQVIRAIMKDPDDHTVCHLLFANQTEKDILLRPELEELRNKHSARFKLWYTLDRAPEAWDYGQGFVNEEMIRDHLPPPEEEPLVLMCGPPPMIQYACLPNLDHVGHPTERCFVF
Briefly: NADH-cytochrome b5 reductase activity determined as NADH-ferricyanide reductase activity. Particulars: 30° C., potassium ferricyanide substrate, decrease of absorbance at 340 nm. The protocol: For the enzyme for reducing metHb herein, “substantially free of enzyme activity” means that the enzyme activity is 10%, 5%, 3%, 1%, 0.5%, 0.2%, 0.1%, 0.05% or 0.03% or less, or below detectable limits, of enzyme activity of the enzyme for reducing metHb existing in the Hb solution purified and concentrated from blood derived from humans or domestic animals. The enzyme activity of the enzyme for reducing metHb herein disclosed herein is determined, for example, by the following procedure. Determination of NADH-cytochrome b5 reductase may be carried out according to Beutler, E. (RED CELL METABOLISM: A MANUAL OF BIOCHEMICAL METHOD, Grune &Stratton, Inc., pp. 81-82 (1987)). […]
the enzyme activity is measured by tracing the degree of acceleration by adding sample comprising oxygen. The measurement is carried out by measuring the change (decrease) in absorbance at 340 nm which is the characteristic absorption of the consumed NADH.
The activity of NADH-cytochrome b5 reductase in the above-mentioned purified and concentrated HbCO solution was determined as NADH-ferricyanide reductase activity according to Beutler, E. above. Diluted Hb samples comprising the enzyme to be measured is mixed with a buffer comprising NADH. […] The decrease of difference of absorbance at 340 nm, a characteristic absorption of NADH, per minute was measured to determine activity unit E (IU/gHb). […]

T1 sequence (P69905 2-142 limits assumed): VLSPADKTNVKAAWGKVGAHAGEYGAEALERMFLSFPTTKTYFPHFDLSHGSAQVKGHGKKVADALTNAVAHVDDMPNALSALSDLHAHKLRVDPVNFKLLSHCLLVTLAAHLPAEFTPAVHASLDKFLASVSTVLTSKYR
T1 sequence (P68871 2-147 limits assumed): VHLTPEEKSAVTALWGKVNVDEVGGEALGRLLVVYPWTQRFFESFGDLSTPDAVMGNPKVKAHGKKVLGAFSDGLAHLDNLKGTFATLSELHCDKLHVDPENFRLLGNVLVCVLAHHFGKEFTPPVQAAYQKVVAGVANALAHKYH

For `NC(=O)C1=CN([C@@H]2O[C@H](COP(=O)(O)OP(=O)(O)OC[C@H]3O[C@@H](n4cnc5c(N)ncnc54)[C@H](O)[C@@H]3O)[C@@H](O)[C@H]2O)C=CC1` [NADH, nicotinamide adenine dinucleotide (NADH)], the “increase of metHb-specific absorbance at 630 nm” value on HbO2 [1] (HbO2 solution + H2O2, 25° C.) is on record as “remarkably suppressed”; at HbO2 [1] (HbO2 solution + NOC7, 25° C.), “remarkably suppressed”; at HbO2 [1] (HbO2 solution + NaNO2, 25° C.), “remarkably suppressed”. The “metHb conversion (%)” value on HbO2 [2] was found to be 17%. In series [3], the “SOD pseudo activity of NADH alone compared with when HbO2 was coexisted” value is 1/10. The “CAT pseudo activity of NADH alone compared with when HbO2 was coexisted” value in series [4] (ratio) is given as 1/10.

As to “purified and concentrated Hb: human Hb purified with heat treatment (60° C., 12 hours) and nanofiltration, concentrated to 40 to 42 g/dL”, the “NADPH metHb reductase / NADPH diaphorase (NADPH-flavin reductase) activity (activity unit E)” value was “below 0.01 IU/gHb” with NADPH-flavin reductase and “does not show enzymatic activities” in the series with NADPH-flavin reductase (listed as Hb solution). The “NADH-cytochrome b5 reductase activity (activity unit E)” value in series [5] is reported as “did not detect any activity”; in series [5] (listed as Hb solution) it was “does not show enzymatic activities”. Moreover, the Catalase activity in series [4] (change of absorbance at 230 nm of H2O2, Example 1) is recorded as ≤ 0.03×10^4 IU/gHb.

The values are drawn from patent US20190076507A1, “Artificial Red Blood Cell Having Ability to Inhibit Conversion of Hemoglobin into Methemoglobin” (Public University Corporation Nara Medical University, priority 2016, published 2019).
